tested on: MAPK14 (BALB/cJ mice); assay: In vivo Inhibition of LPS-induced TNF-alpha Production; settings: dose or concentration not given here

Row | SMILES | inhibition
1 | CN(Cc1ccccc1)Cc1[nH]cc(-c2ccc(F)cc2)c1-c1ccncc1 | 37%
2 | CCC(=O)c1c(-c2ccc(F)cc2)c(-c2ccncc2)c(N2CCNCC2)n1C | 32%
3 | COC(=O)c1c(-c2ccc(F)cc2)c(-c2ccncc2)c(N2CCN(C3CCCC3)CC2)n1C | 48.6%
4 | Cn1c(CO)c(-c2ccc(F)cc2)c(-c2ccncc2)c1N1CCN(C(=O)OC(C)(C)C)CC1 | 83%
5 | COC(=O)C1CCn2c(I)c(-c3ccncc3)c(-c3ccc(F)cc3)c2C1=O (configuration not stated) | 15%
6 | Fc1ccc(-c2cn3c(c2-c2ccncc2)CNCC3)cc1 | 71%
7 | COc1ccc(CNCc2[nH]cc(-c3ccncc3)c2-c2ccc(F)cc2)cc1 | -30%
8 | CC(=O)N1CCN(c2c(-c3ccncc3)c(-c3ccc(F)cc3)c(-c3nnco3)n2C)CC1 | 19%
9 | CCOC(=O)c1c(-c2cc(F)cc(F)c2)c(-c2ccncc2)c(N2CCNCC2)n1C | 75%
10 | COC(=O)c1c(-c2ccc(F)cc2)c(-c2ccncc2)c(N2CCN(c3cccc(C(C)=O)c3)CC2)n1C | -21%
11 | COC(=O)c1c(-c2ccc(F)cc2)c(-c2ccncc2)c(Nc2ccc(N3CCOCC3)cc2)n1C | 29%
12 | CNC(=O)c1c(-c2ccc(F)cc2)c(-c2ccncc2)c(N2CCNCC2)n1C | -7%
13 | CN(C)C(=O)c1c(-c2ccc(F)cc2)c(-c2ccncc2)cn1C | 33%
14 | COC(=O)c1c(-c2ccncc2)c(-c2ccc(F)cc2)c(NCCc2ccccc2)n1C | 58%
15 | O=C1CCn2c(Br)c(-c3ccncc3)c(-c3ccc(F)cc3)c21 | 31%
16 | CCOC(=O)c1[nH]cc(-c2ccncc2)c1-c1cc(F)cc(F)c1 | -14%
17 | CCCc1[nH]cc(-c2ccc(F)cc2)c1-c1ccnc(N[C@@H](C)c2ccccc2)n1 | -19%
18 | COC(=O)c1c(-c2ccncc2)c(-c2ccc(F)cc2)c(NCCN2CCOCC2)n1C | 91%
19 | Fc1ccc(-c2c[nH]c(CNCc3ccncc3)c2-c2ccncc2)cc1 | 47%
20 | Fc1ccc(-c2cn3c(c2-c2ccncc2)CN(Cc2ccccc2)CC3)cc1 | -6%

Row | SMILES | inhibition
21 | COC(=O)c1c(-c2ccc(F)cc2)c(-c2ccncc2)c(NCCN2CCOCC2)n1C | 44%
22 | COC(=O)c1c(-c2ccncc2)c(-c2ccc(F)cc2)c(Br)n1C | -6%
23 | CCn1cc(-c2ccncc2)c(-c2ccc(F)cc2)c1C(=O)OC | 53%
24 | CCOC(=O)c1c(-c2ccc(F)cc2)c(-c2ccncc2)c(N2CCNCC2)n1C | 79%
25 | COC(=O)C1Cn2cc(-c3ccncc3)c(-c3ccc(F)cc3)c2C1=O (configuration not stated) | 44.7%
26 | COC(=O)c1c(-c2ccc(F)cc2)c(-c2ccncc2)c(C2=CCNCC2)n1C | 96%
27 | CCOC(=O)c1c(-c2cccc(C(F)(F)F)c2)c(-c2ccncc2)c(N2CCNCC2)n1C | 83%
28 | Cn1cc(-c2ccc(F)cc2)c(-c2ccncc2)c1N1CCNCC1 | 75%
29 | COC(=O)c1c(-c2ccncc2)c(-c2ccc(F)cc2)cn1C | -56%
30 | COC(=O)c1c(-c2ccc(F)cc2)c(-c2ccncc2)cn1C(=O)OC | -22%
31 | CC(=O)c1c(-c2ccc(F)cc2)c(-c2ccncc2)c(N2CCN(C)CC2)n1C | 40%
32 | COC(=O)c1c(-c2ccc(F)cc2)c(-c2ccncc2)c(NCCN2CCCC2)n1CCN1CCOCC1 | 23%
33 | CCOC(=O)c1[nH]cc(-c2ccncc2)c1-c1ccccc1 | 58%
34 | O=C1CCCn2c(NCCN3CCOCC3)c(-c3ccncc3)c(-c3ccc(F)cc3)c21 | 51%
35 | COC(=O)c1c(-c2ccc(F)cc2)c(-c2ccncc2)c(Nc2cccnc2)n1C | -10.5%
36 | COC(=O)c1c(-c2ccc(F)cc2)c(-c2ccncc2)cn1CCN(C)C | -32%
37 | COC(=O)c1c(-c2ccc(F)cc2)c(-c2ccncc2)c(NCCCN2CCOCC2)n1C | 64%
38 | COC(=O)c1c(-c2ccc(F)cc2)c(-c2ccncc2)c(NCCN2CCNCC2)n1C | 77%
39 | CCCc1c(-c2ccnc(N[C@@H](C)c3ccccc3)n2)c(-c2ccc(F)cc2)cn1C(=O)OC(C)(C)C | -79%
40 | COC(=O)c1c(-c2ccc(F)cc2)c(-c2ccncc2)c(-c2ccncc2)n1C | 51%

target: MAPK14 (human) (UniProt Q16539); assay: In vitro Inhibition of TNF-alpha Production in PBMC Cells; settings: not given
Sequence (Q16539 whole entry, looked up): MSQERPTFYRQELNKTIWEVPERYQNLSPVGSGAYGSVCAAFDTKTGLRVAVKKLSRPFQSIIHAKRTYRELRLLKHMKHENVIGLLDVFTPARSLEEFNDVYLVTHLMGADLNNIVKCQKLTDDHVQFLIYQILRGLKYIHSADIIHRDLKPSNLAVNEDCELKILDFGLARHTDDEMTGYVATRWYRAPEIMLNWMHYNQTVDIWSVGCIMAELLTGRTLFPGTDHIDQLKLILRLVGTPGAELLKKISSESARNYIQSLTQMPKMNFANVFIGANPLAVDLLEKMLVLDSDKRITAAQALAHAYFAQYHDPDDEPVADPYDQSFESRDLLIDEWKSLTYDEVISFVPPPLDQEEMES

Row | IC50 | SMILES
41 | 91 nM | CN(Cc1ccccc1)Cc1[nH]cc(-c2ccc(F)cc2)c1-c1ccncc1
42 | 160 nM | O=C1OCCn2cc(-c3ccncc3)c(-c3ccc(F)cc3)c21
43 | 1080 nM | CCCCNCc1c(-c2ccncc2)c(-c2ccc(F)cc2)cn1C
44 | 67 nM | CCC(=O)c1c(-c2ccc(F)cc2)c(-c2ccncc2)c(N2CCNCC2)n1C
45 | 157 nM | Cn1cc(-c2ccncc2)c(-c2ccc(F)cc2)c1C(=O)NCC(=O)c1ccccc1
46 | 139 nM | COC(=O)c1c(-c2ccc(F)cc2)c(-c2ccncc2)c(N2CCN(C3CCCC3)CC2)n1C
47 | 1490 nM | COC(=O)c1c(-c2ccc(F)cc2)c(-c2ccncc2)c(NC(C)=O)n1C
48 | 1980 nM | COC(=O)c1c(-c2ccc(F)cc2)c(-c2ccncc2)c(N2CCN(C(C)C)CC2)n1C
49 | 589 nM | CCCn1c(NCCN2CCOCC2)c(-c2ccncc2)c(-c2ccc(F)cc2)c1C(=O)OC
50 | 208 nM | Fc1ccc(-c2cn3c(c2-c2ccncc2)CNCC3)cc1
51 | 190 nM | COc1ccc(CNCc2[nH]cc(-c3ccncc3)c2-c2ccc(F)cc2)cc1
52 | 93 nM | CCOC(=O)c1c(-c2cc(F)cc(F)c2)c(-c2ccncc2)c(N2CCNCC2)n1C
53 | 8 nM | COC(=O)c1c(-c2ccc(F)cc2)c(-c2ccncc2)c(N2CCN(c3cccc(C(C)=O)c3)CC2)n1C
54 | 1560 nM | COC(=O)c1c(-c2ccc(F)cc2)c(-c2ccncc2)c(Nc2ccc(N3CCOCC3)cc2)n1C
55 | 106 nM | CNC(=O)c1c(-c2ccc(F)cc2)c(-c2ccncc2)c(N2CCNCC2)n1C
56 | 125 nM | CCOC(=O)c1c(-c2ccc(F)cc2)c(-c2ccncc2)cn1C
57 | 650 nM | COC(=O)c1c(-c2ccc(F)cc2)c(-c2ccncc2)c(Nc2ccc3c(c2)N(C(C)=O)CC3)n1C
58 | 1380 nM | CN(C)C(=O)c1c(-c2ccc(F)cc2)c(-c2ccncc2)cn1C
59 | 1020 nM | COC(=O)c1c(-c2ccncc2)c(-c2ccc(F)cc2)c(NCCc2ccccc2)n1C
60 | 819 nM | O=C1CCn2c(Br)c(-c3ccncc3)c(-c3ccc(F)cc3)c21
61 | 86 nM | CCOC(=O)c1c(-c2ccc(F)cc2)c(-c2ccncc2)c(Br)n1C
62 | 114 nM | CCOC(=O)c1[nH]cc(-c2ccncc2)c1-c1cc(F)cc(F)c1

— the Kinase Knowledgebase extract (Sharma et al. 2016)
